From PubChem BioAssay (NCI)
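At the GI50, growth is halved. The concentration for full growth arrest is given as TGI.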

Tests used:
Assay in all cases: inhibition of tumour cell growth, NCI panel, 384-well format
[1] = system: T-47D breast
[2] = system: K-562 leukemia
[3] = system: SF-539 CNS
[4] = system: NCI/ADR-RES ovarian
[5] = system: HOP-62 NSCLC
[6] = system: NCI-H226 lung
[7] = system: OVCAR-8 ovarian
[8] = system: UO-31 renal
[9] = system: SF-295 CNS
[10] = system: UACC-62 melanoma
[11] = system: NCI-H322M lung
[12] = system: CCRF-CEM leukemia

C[C@@H]1CN(CC(=O)N2CC(C)(C)c3nc(CO)c(Cc4ccc(F)cc4)cc32)[C@@H](CN2CCOC[C@H]2C)CN1
GI50 [1]: 22.4 µM | TGI [1]: 49 µM | GI50 [2]: 16.8 µM | TGI [2]: 30.9 µM | GI50 [3]: 32.4 µM | TGI [3]: 67.2 µM | GI50 [4]: > 70.9 µM | TGI [4]: > 100 µM | GI50 [5]: 17.9 µM | TGI [5]: > 61.2 µM | GI50 [6]: 40.4 µM | TGI [6]: > 82.3 µM | GI50 [7]: 17.7 µM | TGI [7]: 47.8 µM | GI50 [8]: 39.6 µM | TGI [8]: > 100 µM | GI50 [9]: 42 µM | TGI [9]: > 81.4 µM | GI50 [10]: 27.9 µM | TGI [10]: > 69 µM | GI50 [11]: 33.5 µM | TGI [11]: > 73.1 µM | GI50 [12]: 16.1 µM | TGI [12]: 42.7 µM
